From publication PMC6792352, “Limited Chemical Structural Diversity Found to Modulate Thyroid Hormone Receptor in the Tox21 Chemical Library” (Environmental Health Perspectives, 2019) come the findings set out here.

For orientation: CC50 means the concentration at which the toxic effect on the cells reaches its halfway point. High values mean lower toxicity to the cells, low ones greater toxicity to the cells.

Where a name gives a salt, the structure may show the parent alone.

A short description of the first data set: in vitro. The note with it: rat, gh3-tre-luc cells, AC50 (uM) modified / 1000.
As for `CC(C)(CCl)C(=O)Cl` [3-Chloro-2,2-dimethylpropanoyl chloride], the CC50 at 24 h was > 90 µM.

As for `Cc1c(N)cccc1Cl` [3-Chloro-2-methylaniline], the CC50 at 24 h is > 90 µM.

Turning to `O=C1OC(O)C(C(Cl)Cl)=C1Cl` (stereo not drawn) [3-Chloro-4-(dichloromethyl)-5-hydroxy-2(5H)-furanone], the 50% cytotoxic concentration (CC50) at 24 h came to 35 µM.

On to `O=C(Cl)c1ccc(F)c(Cl)c1` [3-Chloro-4-fluorobenzoyl chloride], for which the CC50 at 24 h was > 90 µM.

In the case of `Cc1ccc(N)cc1Cl` [3-Chloro-4-methylaniline], the CC50 at 24 h was > 90 µM.

Turning to `Nc1cccc(Cl)c1` [3-Chloroaniline], the CC50 at 24 h is > 90 µM.

For the molecule `FC(F)(F)c1cccc(Cl)c1` [3-Chlorobenzotrifluoride], the CC50 at 24 h is > 90 µM.

On to `Oc1cccc(Cl)c1` [3-Chlorophenol], for which the CC50 at 24 h was > 90 µM.

Turning to `O=C(O)CCCl` [3-Chloropropanoic acid], the CC50 at 24 h is > 90 µM.

As to `N#CCCCl` [3-Chloropropionitrile], the CC50 at 24 h is > 90 µM.

In the case of `O=CC1CC=CCC1` (stereo not drawn) [3-Cyclohexene-1-carboxaldehyde], the CC50 at 24 h is > 90 µM.

As to `OCCCC1CCCCC1` [3-Cyclohexylpropan-1-ol], the CC50 at 24 h is > 90 µM.

With `CCN(CC)c1cccc(O)c1` [3-Diethylaminophenol], the CC50 at 24 h was > 90 µM.

`CN(C)c1cccc(O)c1` [3-Dimethylaminophenol]: the CC50 at 24 h is > 90 µM.

`CN(C)CCC#N` [3-Dimethylaminopropionitrile]: the CC50 at 24 h was > 90 µM.

Take `CCOc1cc(C=O)ccc1O` [3-Ethoxy-4-hydroxybenzaldehyde]: the CC50 at 24 h is > 50 µM.

Turning to `CCOc1cccc(N)c1` [3-Ethoxyaniline], the half-maximal cytotoxic concentration (CC50) at 24 h was > 90 µM.

Take `CCc1nccnc1C` [3-Ethyl-2-methylpyrazine]: the CC50 at 24 h is > 90 µM.

With `CCNc1cc(O)ccc1C` [3-Ethylamino-4-methylphenol], the CC50 at 24 h was > 90 µM.

As to `CCc1cccc(O)c1` [3-Ethylphenol], the CC50 at 24 h is > 90 µM.

Take `CCc1cccc(C)c1` [3-Ethyltoluene]: the CC50 at 24 h was > 90 µM.

Consider `CCCC(=O)CC` [3-Hexanone], for which the CC50 at 24 h was > 90 µM.

`CC(C)(CO)COC(=O)C(C)(C)CO` [3-Hydroxy-2,2-dimethylpropyl 3-hydroxy-2,2-dimethylpropanoate]: the CC50 at 24 h was > 90 µM.

With `CC(CO)(CO)C(=O)O` [3-Hydroxy-2-(hydroxymethyl)-2-methylpropanoic acid], the CC50 at 24 h was > 90 µM.

As to `O=C(O)c1cc2ccccc2cc1O` [3-Hydroxy-2-naphthoic acid], the CC50 at 24 h was > 90 µM.

Regarding `COc1ccccc1NC(=O)c1cc2ccccc2cc1O` [3-Hydroxy-2-naphthoic o-anisidide], the CC50 at 24 h was > 90 µM.

Consider `CCOc1ccc(NC(=O)CC(C)O)cc1` (stereo not drawn) [3-Hydroxy-4-butyrophenetidide], for which the CC50 at 24 h is > 90 µM.

`O=C(Nc1cccc([N+](=O)[O-])c1)c1cc2ccccc2cc1O` [3-Hydroxy-N-(3-nitrophenyl)naphthalene-2-carboxamide]: it took 1.77 µM to reach half-maximal cytotoxicity (CC50 at 24 h).

Turning to `Oc1cccc(Nc2ccccc2)c1` [3-Hydroxy-N-phenylaniline], the CC50 at 24 h is > 100 µM.

Turning to `O=C(O)c1cccc(O)c1` [3-Hydroxybenzoic acid], the CC50 at 24 h is > 90 µM.

As for `O=C(c1ccccc1)c1cccc(O)c1` [3-Hydroxybenzophenone], the CC50 at 24 h is > 90 µM.

For the molecule `Oc1ccc2c(c1)-c1ccccc1C2` [3-Hydroxyfluorene], the half-maximal cytotoxic concentration (CC50) at 24 h is > 90 µM.

Regarding `O=c1[nH][nH]c2ccccc12` [3-Indazolinone], the CC50 at 24 h is > 90 µM.

With `N=C(N)NCc1cccc(I)c1` [3-Iodobenzylguanidine hemisulfate], the CC50 at 24 h was > 50 µM.

Consider `CC(C)c1cccc(O)c1` [3-Isopropylphenol], for which the CC50 at 24 h is > 100 µM.

For the molecule `O=C(O)CCS` [3-Mercaptopropanoic acid], the CC50 at 24 h was > 90 µM.

As for `COC(=O)CCS` [3-Mercaptopropionic acid methyl ester], the CC50 at 24 h was > 90 µM.

Regarding `CO[Si](CCCS)(OC)OC` [3-Mercaptopropyltrimethoxysilane], the CC50 at 24 h is > 90 µM.

With `COC(C)(C)CCO` [3-Methoxy-3-methylbutan-1-ol], the half-maximal cytotoxic concentration (CC50) at 24 h is > 90 µM.

Consider `COc1cc(N)ccc1C` [3-Methoxy-4-methylaniline], for which the CC50 at 24 h is > 90 µM.

Take `COc1cc(C)cc(O)c1` [3-Methoxy-5-methylphenol]: the CC50 at 24 h is > 90 µM.

Turning to `COc1cccc(N)c1` [3-Methoxyaniline], the CC50 at 24 h was > 90 µM.

With `COC(C)CCO` (stereo not drawn) [3-Methoxybutan-1-ol], the CC50 at 24 h is > 90 µM.

Molecule `COc1cccc(O)c1O` [3-Methoxycatechol] gave a CC50 at 24 h of 70.4 µM.

Regarding `COCCC#N` [3-Methoxypropionitrile], the CC50 at 24 h is > 90 µM.

Consider `COCCCN` [3-Methoxypropylamine], for which the CC50 at 24 h was > 90 µM.

Take `CC1CCC(=O)C1=O` (stereo not drawn) [3-Methyl-1,2-cyclopentanedione]: the CC50 at 24 h is > 100 µM.

As to `Cc1cc(N)n(-c2ccccc2)n1` [3-Methyl-1-phenyl-1H-pyrazol-5-amine], the CC50 at 24 h is > 90 µM.

Consider `CC(=O)C(C)C` [3-Methyl-2-butanone], for which the CC50 at 24 h was > 100 µM.

`CC(C)=CCO` [3-Methyl-2-buten-1-ol]: the CC50 at 24 h was > 90 µM.

`CC(C)=CCOC(=O)c1ccccc1` [3-Methyl-2-butenyl benzoate]: the CC50 at 24 h was > 90 µM.

In the case of `CC1=CC(=O)CCC1` [3-Methyl-2-cyclohexen-1-one], the CC50 at 24 h is > 90 µM.

For `Cc1cccc(C(=O)O)c1[N+](=O)[O-]` [3-Methyl-2-nitrobenzoic acid], the CC50 at 24 h was > 90 µM.

For `CCC(C)C(C)=O` (stereo not drawn) [3-Methyl-2-pentanone], the CC50 at 24 h was > 90 µM.

Regarding `CC1COc2ccccc2N1` (stereo not drawn) [3-Methyl-3,4-dihydro-2H-1,4-benzoxazine], the CC50 at 24 h is > 90 µM.

In the case of `CC=C(C)C(C)=O` [3-Methyl-3-penten-2-one], the CC50 at 24 h was > 90 µM.

Regarding `Cc1cc(C(=O)O)ccc1[N+](=O)[O-]` [3-Methyl-4-nitrobenzoic acid], the CC50 at 24 h is > 90 µM.

In the case of `CC(CCO)CCc1ccccc1` (stereo not drawn) [3-Methyl-5-phenylpentan-1-ol], the CC50 at 24 h is > 90 µM.

With `Cc1cccc(Nc2ccccc2)c1` [3-Methyl-N-phenylaniline], the half-maximal cytotoxic concentration (CC50) at 24 h was > 90 µM.

As to `Cc1cccc(N)c1` [3-Methylaniline hydrochloride], the CC50 at 24 h was > 90 µM.

`Cc1cccc(C(=O)O)c1` [3-Methylbenzoic acid]: the CC50 at 24 h was > 90 µM.

For the molecule `CC(C)=CC=O` [3-Methylbut-2-enal], the CC50 at 24 h was > 100 µM.

`CC(C)CC=O` [3-Methylbutanal]: the CC50 at 24 h was > 90 µM.

For the molecule `CC(C)CCOC(=O)CC(C)C` [3-Methylbutyl 3-methylbutanoate], the CC50 at 24 h was > 90 µM.

In the case of `CC(=O)OCCC(C)C` [3-Methylbutyl acetate], the 50% cytotoxic concentration (CC50) at 24 h was > 90 µM.

Turning to `CC(C)CCOC(=O)/C=C/c1ccccc1` [3-Methylbutyl cinnamate], the CC50 at 24 h is > 90 µM.

On to `CC1CCCC(=O)C1=O` (stereo not drawn) [3-Methylcyclohexane-1,2-dione], for which the CC50 at 24 h was > 90 µM.

For `CCCC(C)CC` (stereo not drawn) [3-Methylhexane], the CC50 at 24 h was > 90 µM.

For the molecule `Cc1c[nH]c2ccccc12` [3-Methylindole], the CC50 at 24 h is > 50 µM.

Turning to `CC1CCCNC1` (stereo not drawn) [3-Methylpiperidine], the CC50 at 24 h is > 90 µM.

`Cc1cccnc1` [3-Methylpyridine]: the half-maximal cytotoxic concentration (CC50) at 24 h is > 90 µM.

On to `N=c1c[n+](N2CCOCC2)[n-]o1` [3-Morpholinosydnonimine hydrochloride], for which the CC50 at 24 h was > 50 µM.

As to `CC(=O)c1cccc([N+](=O)[O-])c1` [3-Nitroacetophenone], the CC50 at 24 h is > 90 µM.

Still in this data set, the particulars now being: rat, gh3-tre-luc cells, AC50 (uM) modified / 1000, Tox21_110001=Tox21_111074; viability, 1 nM T3 present, 24 h.
`CC(C)CCON=O` [3-Methylbutyl nitrite]: the CC50 at 24 h is > 50 µM.

The same data set, now with this note: rat, gh3-tre-luc cells, AC50 (uM) modified / 1000, Tox21_110001=Tox21_112294; viability, 1 nM T3 present, 24 h.
Turning to `C#CC(C)(O)CC` (stereo not drawn) [3-Methyl-1-pentyn-3-ol], the CC50 at 24 h was > 50 µM.

Staying with this data set, now noted: rat, gh3-tre-luc cells, AC50 (uM) modified / 1000, Tox21_110001=Tox21_200325; viability, 1 nM T3 present, 24 h.
Take `O=C(O)c1cccc(Cl)c1` [3-Chlorobenzoic acid]: the CC50 at 24 h was > 90 µM.

The same data set, now with this note: rat, gh3-tre-luc cells, AC50 (uM) modified / 1000, Tox21_110001=Tox21_200853; viability, 1 nM T3 present, 24 h.
With `Cc1cccc(C#N)c1` [3-Methylbenzonitrile], the CC50 at 24 h was > 90 µM.

Still in this data set, the particulars now being: rat, gh3-tre-luc cells, AC50 (uM) modified / 1000, Tox21_110001=Tox21_200983; viability, 1 nM T3 present, 24 h.
For the molecule `CC(C)CCON=O` [3-Methylbutyl nitrite], the cytotoxic concentration (CC50) at 24 h is > 90 µM.

The same data set, now with this note: rat, gh3-tre-luc cells, AC50 (uM) modified / 1000, Tox21_110001=Tox21_201640; viability, 1 nM T3 present, 24 h.
Regarding `C=C(C)CCl` [3-Chloro-2-methylpropene], the CC50 at 24 h was > 90 µM.

Staying with this data set, now noted: rat, gh3-tre-luc cells, AC50 (uM) modified / 1000, Tox21_110001=Tox21_202262; viability, 1 nM T3 present, 24 h.
Take `OCC(O)CCl` (stereo not drawn) [3-Chloro-1,2-propanediol]: the half-maximal cytotoxic concentration (CC50) at 24 h was > 90 µM.

The data set is the same for the next values; noted with them: rat, gh3-tre-luc cells, AC50 (uM) modified / 1000, Tox21_110001=Tox21_202592; viability, 1 nM T3 present, 24 h.
As for `Cc1ccc2cc3c(ccc4ccccc43)c3c2c1CC3` [3-Methylcholanthrene], the CC50 at 24 h is > 50 µM.

The same data set, now with this note: rat, gh3-tre-luc cells, AC50 (uM) modified / 1000, Tox21_110001=Tox21_202858; viability, 1 nM T3 present, 24 h.
Turning to `COc1ccc(C=O)cc1O` [3-Hydroxy-4-methoxy-benzaldehyde], the CC50 at 24 h was > 90 µM.

Still in this data set, the particulars now being: rat, gh3-tre-luc cells, AC50 (uM) modified / 1000, Tox21_110001=Tox21_302136; viability, 1 nM T3 present, 24 h.
Turning to `COc1cccc(C=O)c1` [3-Methoxybenzaldehyde], the CC50 at 24 h is > 90 µM.

Still in this data set, the particulars now being: rat, gh3-tre-luc cells, AC50 (uM) modified / 1000, Tox21_110001=Tox21_303609; viability, 1 nM T3 present, 24 h.
As to `C=C(C)CCl` [3-Chloro-2-methylpropene], the CC50 at 24 h was > 9 µM.
